Results from US12570650B2, “6-substituted pyridazine compounds as SMARCA2 and/or SMARCA4 degraders” (Aurigene Oncology Limited, priority 2020, dated 2026).

Legend:
SMARCA2 = molecular target: T1, SMARCA2 (Homo sapiens, UniProt P51531); assay: SMARCA2 degradation in VCaP cells by Western blot; type: cell-based; conditions: 16 hours
T1 construct: Determination of SMARCA2 and SMARCA4 Degradation in VCaP Cells by Western Blot; endogenous in cells; host or cells: VCaP (ATCC CRL-2876)
Method: Example-P2: Determination of SMARCA2 and SMARCA4 Degradation in VCaP Cells by Western Blot
VCaP (ATCC CRL-2876) was plated in 6 well plates using complete Dulbecco's Modified Eagle's Medium. On the third day, compounds of present invention were added to cells from 10 mM stocks made in DMSO (Sigma Cat no. D2650). Each concentration of compound was tested with DMSO not exceeding final percentage of 0.3 in the cells. Cells were incubated with the compound for 16 hours followed by harvesting with 1×RIPA lysis buffer (Thermo Fischer, catalogue number #89900) containing protease inhibitor cocktail (Sigma catalogue number #P-8340). Equal amount of protein was loaded on SDS PAGE gel for electrophoresis. Western blot was carried out for detection of either SMARCA2 (Cell signalling technologies, catalogue number #11966) or SMARCA4 antibody (Cell signalling technologies, catalogue number #52251). Beta-Tubulin antibody (Cell signalling technologies, catalogue number #86298) was used as loading control. Percentage of SMARCA2 or SMARCA4 degradation was calculated using formula % Degradation=100−(normalized band intensity in treated sample/normalized band intensity in DMSO sample)*100.

SMARCA4 = molecular target: T2, SMARCA4 (Homo sapiens, UniProt P51532); assay: SMARCA4 degradation in VCaP cells by Western blot; type: cell-based; conditions: 16 hours
T2 construct: Determination of SMARCA2 and SMARCA4 Degradation in VCaP Cells by Western Blot; endogenous in cells; host or cells: VCaP (ATCC CRL-2876)
Method: On the third day, compounds of present invention were added to cells from 10 mM stocks made in DMSO (Sigma Cat no. D2650). Each concentration of compound was tested with DMSO not exceeding final percentage of 0.3 in the cells. […] Equal amount of protein was loaded on SDS PAGE gel for electrophoresis. […] Percentage of SMARCA2 or SMARCA4 degradation was calculated using formula % Degradation=100−(normalized band intensity in treated sample/normalized band intensity in DMSO sample)*100.

T1 sequence (P51531 whole entry): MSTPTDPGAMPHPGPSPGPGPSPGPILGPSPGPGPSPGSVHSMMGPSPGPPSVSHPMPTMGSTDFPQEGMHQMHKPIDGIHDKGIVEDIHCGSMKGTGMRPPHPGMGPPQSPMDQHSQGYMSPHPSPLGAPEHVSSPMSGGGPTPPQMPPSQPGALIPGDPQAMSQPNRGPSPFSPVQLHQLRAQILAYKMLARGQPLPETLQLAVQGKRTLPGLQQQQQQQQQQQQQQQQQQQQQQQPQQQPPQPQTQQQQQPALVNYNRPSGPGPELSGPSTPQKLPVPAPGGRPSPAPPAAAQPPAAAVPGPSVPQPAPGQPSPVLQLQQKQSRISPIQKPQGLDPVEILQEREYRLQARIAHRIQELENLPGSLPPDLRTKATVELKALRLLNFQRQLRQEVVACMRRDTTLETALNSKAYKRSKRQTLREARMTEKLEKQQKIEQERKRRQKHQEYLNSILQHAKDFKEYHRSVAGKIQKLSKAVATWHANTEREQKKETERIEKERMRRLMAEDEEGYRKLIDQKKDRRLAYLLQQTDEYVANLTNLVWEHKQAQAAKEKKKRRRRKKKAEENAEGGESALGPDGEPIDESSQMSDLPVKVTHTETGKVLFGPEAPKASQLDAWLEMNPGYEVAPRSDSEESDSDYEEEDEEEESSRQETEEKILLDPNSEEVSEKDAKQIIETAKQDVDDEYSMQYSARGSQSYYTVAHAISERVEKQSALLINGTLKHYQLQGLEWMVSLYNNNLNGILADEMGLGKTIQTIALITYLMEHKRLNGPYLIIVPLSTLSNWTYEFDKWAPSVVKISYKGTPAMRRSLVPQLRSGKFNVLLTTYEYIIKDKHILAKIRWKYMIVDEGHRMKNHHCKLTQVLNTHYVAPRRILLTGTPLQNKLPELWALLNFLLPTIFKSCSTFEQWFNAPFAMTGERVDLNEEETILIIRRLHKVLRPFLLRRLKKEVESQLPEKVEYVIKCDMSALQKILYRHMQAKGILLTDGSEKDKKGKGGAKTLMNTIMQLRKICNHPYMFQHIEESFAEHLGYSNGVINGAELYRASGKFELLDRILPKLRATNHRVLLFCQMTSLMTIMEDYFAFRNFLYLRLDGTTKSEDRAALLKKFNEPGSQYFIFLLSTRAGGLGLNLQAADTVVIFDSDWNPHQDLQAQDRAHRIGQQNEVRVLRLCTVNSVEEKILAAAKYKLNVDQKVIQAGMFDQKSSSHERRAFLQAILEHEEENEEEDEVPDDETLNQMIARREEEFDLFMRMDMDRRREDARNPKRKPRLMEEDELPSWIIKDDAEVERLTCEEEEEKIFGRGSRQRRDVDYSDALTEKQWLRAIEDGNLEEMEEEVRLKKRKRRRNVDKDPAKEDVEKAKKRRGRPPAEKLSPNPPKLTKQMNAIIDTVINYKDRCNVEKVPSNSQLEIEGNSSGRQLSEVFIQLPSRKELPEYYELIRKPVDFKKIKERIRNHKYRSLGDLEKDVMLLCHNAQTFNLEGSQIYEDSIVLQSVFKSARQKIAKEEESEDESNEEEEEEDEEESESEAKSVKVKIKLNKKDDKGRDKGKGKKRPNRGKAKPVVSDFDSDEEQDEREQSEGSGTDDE
T2 sequence (P51532 whole entry): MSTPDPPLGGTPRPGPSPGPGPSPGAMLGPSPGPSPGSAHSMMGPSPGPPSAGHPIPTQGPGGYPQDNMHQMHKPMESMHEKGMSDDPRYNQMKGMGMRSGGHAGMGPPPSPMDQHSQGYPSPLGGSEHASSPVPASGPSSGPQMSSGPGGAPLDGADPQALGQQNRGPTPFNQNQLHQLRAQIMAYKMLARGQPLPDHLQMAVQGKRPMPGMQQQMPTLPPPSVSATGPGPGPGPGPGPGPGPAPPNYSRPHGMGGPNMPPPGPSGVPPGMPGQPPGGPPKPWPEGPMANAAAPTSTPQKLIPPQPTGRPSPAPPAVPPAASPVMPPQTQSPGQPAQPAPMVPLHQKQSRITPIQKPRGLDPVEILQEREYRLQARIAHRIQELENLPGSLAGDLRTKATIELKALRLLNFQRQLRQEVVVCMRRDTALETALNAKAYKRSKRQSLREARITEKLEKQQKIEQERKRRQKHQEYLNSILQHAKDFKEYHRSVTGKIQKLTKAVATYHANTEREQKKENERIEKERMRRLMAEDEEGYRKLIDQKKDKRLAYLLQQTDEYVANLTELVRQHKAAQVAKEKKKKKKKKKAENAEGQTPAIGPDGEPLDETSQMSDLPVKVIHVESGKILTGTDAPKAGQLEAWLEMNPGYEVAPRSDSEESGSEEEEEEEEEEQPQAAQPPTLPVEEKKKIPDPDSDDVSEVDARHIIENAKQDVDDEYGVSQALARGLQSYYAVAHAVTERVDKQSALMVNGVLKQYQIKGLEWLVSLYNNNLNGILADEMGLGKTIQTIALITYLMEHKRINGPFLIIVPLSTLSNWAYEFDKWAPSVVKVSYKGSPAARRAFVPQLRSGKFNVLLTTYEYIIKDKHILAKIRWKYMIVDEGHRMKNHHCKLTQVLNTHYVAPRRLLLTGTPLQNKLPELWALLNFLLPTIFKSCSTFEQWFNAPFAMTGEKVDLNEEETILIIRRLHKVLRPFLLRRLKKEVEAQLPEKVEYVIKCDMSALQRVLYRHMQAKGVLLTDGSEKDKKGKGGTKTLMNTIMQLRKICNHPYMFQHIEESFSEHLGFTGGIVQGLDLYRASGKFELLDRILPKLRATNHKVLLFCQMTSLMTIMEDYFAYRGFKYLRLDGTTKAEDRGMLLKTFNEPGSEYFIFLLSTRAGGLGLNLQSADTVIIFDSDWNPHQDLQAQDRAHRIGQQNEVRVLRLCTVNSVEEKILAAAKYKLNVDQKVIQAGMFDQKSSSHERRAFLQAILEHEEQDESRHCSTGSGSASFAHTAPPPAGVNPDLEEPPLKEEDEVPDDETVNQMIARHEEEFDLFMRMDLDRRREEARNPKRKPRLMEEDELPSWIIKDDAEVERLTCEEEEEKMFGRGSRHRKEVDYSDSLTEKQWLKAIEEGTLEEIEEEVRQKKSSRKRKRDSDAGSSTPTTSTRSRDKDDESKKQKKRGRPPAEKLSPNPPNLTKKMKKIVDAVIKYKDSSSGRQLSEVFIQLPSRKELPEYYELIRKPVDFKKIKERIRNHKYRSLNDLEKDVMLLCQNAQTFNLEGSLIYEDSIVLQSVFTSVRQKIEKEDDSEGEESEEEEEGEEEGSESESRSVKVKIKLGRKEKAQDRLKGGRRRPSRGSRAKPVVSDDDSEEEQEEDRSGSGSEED

Row | Percent degradation (at 100 nM) SMARCA2 (SMARCA2) [%] | Percent degradation (at 100 nM) SMARCA4 (SMARCA4) [%] | SMILES
1 | 84 | 20 | Cc1ncsc1-c1ccc([C@H](C)NC(=O)[C@@H]2C[C@@H](O)CN2C(=O)[C@@H](NC(=O)CCN2CCN(c3ccc(-c4cnnc(-c5ccccc5O)c4)cc3)CC2)C(C)(C)C)cc1 [Compound 8, (2S,4R)-4-hydroxy-1-((S)-2-(3-(4-(4-(6-(2-hydroxyphenyl)pyridazin-4-yl)phenyl)piperazin-1-yl)propanamido)-3,3-dimethylbutanoyl)-N-((S)-1-(4-(4-methylthiazol-5-yl)phenyl)ethyl)pyrrolidine-2-carboxamide]
2 | 0 | 30 | Cc1ncsc1-c1ccc([C@H](C)NC(=O)[C@@H]2C[C@@H](O)CN2C(=O)C(c2cc(-c3ccc(-c4cnnc(-c5ccccc5O)c4)cc3)no2)C(C)C)cc1 (mixture of isomers) [Compound 1, (2S,4R)-4-hydroxy-1-(2-(3-(4-(6-(2-hydroxyphenyl)pyridazin-4-yl)phenyl)isoxazol-5-yl)-3-methylbutanoyl)-N-((S)-1-(4-(4-methylthiazol-5-yl)phenyl)ethyl)pyrrolidine-2-carboxamide]
3 | 22 | 6 | Cc1ncsc1-c1ccc([C@H](C)NC(=O)[C@@H]2C[C@@H](O)CN2C(=O)C(c2cc(OCCN(C)c3ccc(-c4cnnc(-c5ccccc5O)c4)cc3)no2)C(C)C)cc1 (mixture of isomers) [Compound 44, (2S,4R)-4-hydroxy-1-(2-(3-(2-((4-(6-(2-hydroxyphenyl)pyridazin-4-yl)phenyl)(methyl)amino)ethoxy)isoxazol-5-yl)-3-methylbutanoyl)-N-((S)-1-(4-(4-methylthiazol-5-yl)phenyl)ethyl)pyrrolidine-2-carboxamide]
4 | 88 | 0 | Cc1ncsc1-c1ccc([C@H](C)NC(=O)[C@@H]2C[C@@H](O)CN2C(=O)[C@@H](NC(=O)CN2CCC(Oc3ccc(-c4cnnc(-c5ccccc5O)c4)cc3)CC2)C(C)(C)C)cc1 [Compound 19, (2S,4R)-4-hydroxy-1-((S)-2-(2-(4-(4-(6-(2-hydroxyphenyl)pyridazin-4-yl)phenoxy)piperidin-1-yl)acetamido)-3,3-dimethylbutanoyl)-N-((S)-1-(4-(4-methylthiazol-5-yl)phenyl)ethyl)pyrrolidine-2-carboxamide]
5 | 89 | 0 | Cc1ncsc1-c1ccc([C@H](C)NC(=O)[C@@H]2C[C@@H](O)CN2C(=O)[C@@H](NC(=O)CN2CCN(c3ccc(-c4cnnc(-c5ccccc5O)c4)cc3F)CC2)C(C)(C)C)cc1 [Compound 26, (2S,4R)-1-((S)-2-(2-(4-(2-fluoro-4-(6-(2-hydroxyphenyl)pyridazin-4-yl)phenyl)piperazin-1-yl)acetamido)-3,3-dimethylbutanoyl)-4-hydroxy-N-((S)-1-(4-(4-methylthiazol-5-yl)phenyl)ethyl)pyrrolidine-2-carboxamide]
6 | 81 | 0 | Cc1ncsc1-c1ccc([C@H](C)NC(=O)[C@@H]2C[C@@H](O)CN2C(=O)[C@@H](NC(=O)CN2CCN(c3ccc(-c4cnnc(-c5cc(F)ccc5O)c4)cc3)CC2)C(C)(C)C)cc1 [Compound 4, (2S,4R)-1-((S)-2-(2-(4-(4-(6-(5-fluoro-2-hydroxyphenyl)pyridazin-4-yl)phenyl)piperazin-1-yl)acetamido)-3,3-dimethylbutanoyl)-4-hydroxy-N-((S)-1-(4-(4-methylthiazol-5-yl)phenyl)ethyl)pyrrolidine-2-carboxamide]
7 | 6 | 3 | Cc1ncsc1-c1ccc([C@H](C)NC(=O)[C@@H]2C[C@@H](O)CN2C(=O)[C@@H](NC(=O)CN2CCN(c3ccc(-c4cnnc(-c5cccc6ccoc56)c4)cc3)CC2)C(C)(C)C)cc1 [Compound 40, (2S,4R)-1-((S)-2-(2-(4-(4-(6-(benzofuran-7-yl)pyridazin-4-yl)phenyl)piperazin-1-yl)acetamido)-3,3-dimethylbutanoyl)-4-hydroxy-N-((S)-1-(4-(4-methylthiazol-5-yl)phenyl)ethyl)pyrrolidine-2-carboxamide]
8 | 45 | 26 | Cc1ncsc1-c1ccc([C@H](C)NC(=O)[C@@H]2C[C@@H](O)CN2C(=O)[C@@H](NC(=O)CN2CCN(c3ccc(-c4cnnc(-c5ccccc5C(F)F)c4)cc3)CC2)C(C)(C)C)cc1 [Compound 37, (2S,4R)-1-((S)-2-(2-(4-(4-(6-(2-(difluoromethyl)phenyl)pyridazin-4-yl)phenyl)piperazin-1-yl)acetamido)-3,3-dimethylbutanoyl)-4-hydroxy-N-((S)-1-(4-(4-methylthiazol-5-yl)phenyl)ethyl)pyrrolidine-2-carboxamide]

Further lines, the molecule ahead of its results:

Row | SMILES | Percent degradation (at 100 nM) SMARCA2 (SMARCA2) [%] | Percent degradation (at 100 nM) SMARCA4 (SMARCA4) [%]
9 | Cc1ncsc1-c1ccc([C@H](C)NC(=O)[C@@H]2C[C@@H](O)CN2C(=O)[C@@H](NC(=O)CN2CCN(c3ccc(-c4cnnc(-c5cccc6cn[nH]c56)c4)cc3)CC2)C(C)(C)C)cc1 [Compound 41, (2S,4R)-1-((S)-2-(2-(4-(4-(6-(1H-indazol-7-yl)pyridazin-4-yl)phenyl)piperazin-1-yl)acetamido)-3,3-dimethylbutanoyl)-4-hydroxy-N-((S)-1-(4-(4-methylthiazol-5-yl)phenyl)ethyl)pyrrolidine-2-carboxamide] | 12 | 22
10 | Cc1ncsc1-c1ccc([C@H](C)NC(=O)[C@@H]2C[C@@H](O)CN2C(=O)[C@@H](NC(=O)CN2CCN(c3ccc(-c4cnnc(Cl)c4)cc3)CC2)C(C)(C)C)cc1 [Compound 3, (2S,4R)-1-((S)-2-(2-(4-(4-(6-chloropyridazin-4-yl)phenyl)piperazin-1-yl)acetamido)-3,3-dimethylbutanoyl)-4-hydroxy-N-((S)-1-(4-(4-methylthiazol-5-yl)phenyl)ethyl)pyrrolidine-2-carboxamide] | 20 | 47
11 | Cc1ncsc1-c1ccc([C@H](C)NC(=O)[C@@H]2C[C@@H](O)CN2C(=O)[C@@H](NC(=O)CN2CCN(c3ccc(-c4cnnc(-c5cnn(C)c5)c4)cc3)CC2)C(C)(C)C)cc1 [Compound 9, (2S,4R)-1-((S)-3,3-dimethyl-2-(2-(4-(4-(6-(1-methyl-1H-pyrazol-4-yl)pyridazin-4-yl)phenyl)piperazin-1-yl)acetamido)butanoyl)-4-hydroxy-N-((S)-1-(4-(4-methylthiazol-5-yl)phenyl)ethyl)pyrrolidine-2-carboxamide] | 0 | 14
12 | Cc1ncsc1-c1ccc(C(CN(C)C)NC(=O)[C@@H]2C[C@@H](O)CN2C(=O)[C@@H](NC(=O)CN2CCN(c3ccc(-c4cnnc(-c5ccccc5O)c4)cc3)CC2)C(C)(C)C)cc1 (stereo partly drawn) [Compound 49, (2S,4R)-N-(2-(dimethylamino)-1-(4-(4-methylthiazol-5-yl)phenyl)ethyl)-4-hydroxy-1-((S)-2-(2-(4-(4-(6-(2-hydroxyphenyl)pyridazin-4-yl)phenyl)piperazin-1-yl)acetamido)-3,3-dimethylbutanoyl)pyrrolidine-2-carboxamide] | 93 | 48
13 | Cc1ncsc1-c1ccc([C@H](CO)NC(=O)[C@@H]2C[C@@H](O)CN2C(=O)[C@@H](NC(=O)CN2CCN(c3ccc(-c4cnnc(-c5ccccc5O)c4)cc3)CC2)C(C)(C)C)cc1 [Compound 48, (2S,4R)-4-hydroxy-N-((R)-2-hydroxy-1-(4-(4-methylthiazol-5-yl)phenyl)ethyl)-1-((S)-2-(2-(4-(4-(6-(2-hydroxyphenyl)pyridazin-4-yl)phenyl)piperazin-1-yl)acetamido)-3,3-dimethylbutanoyl)pyrrolidine-2-carboxamide] | 90 | 21
14 | Cc1ncsc1-c1ccc([C@H](C)NC(=O)[C@@H]2C[C@@H](O)CN2C(=O)[C@@H](NC(=O)CN2CCN(c3ccc(-c4cnnc(-c5cccc6cc[nH]c56)c4)cc3)CC2)C(C)(C)C)cc1 [Compound 39, (2S,4R)-1-((S)-2-(2-(4-(4-(6-(1H-indol-7-yl)pyridazin-4-yl)phenyl)piperazin-1-yl)acetamido)-3,3-dimethylbutanoyl)-4-hydroxy-N-((S)-1-(4-(4-methylthiazol-5-yl)phenyl)ethyl)pyrrolidine-2-carboxamide] | 46 | 17
15 | Cc1ncsc1-c1ccc([C@H](C)NC(=O)[C@@H]2C[C@@H](O)CN2C(=O)[C@@H](NC(=O)CN2CCC(n3cc(-c4cnnc(-c5ccccc5O)c4)cn3)CC2)C(C)(C)C)cc1 [Compound 33, (2S,4R)-4-hydroxy-1-((S)-2-(2-(4-(4-(6-(2-hydroxyphenyl)pyridazin-4-yl)-1H-pyrazol-1-yl)piperidin-1-yl)acetamido)-3,3-dimethylbutanoyl)-N-((S)-1-(4-(4-methylthiazol-5-yl)phenyl)ethyl)pyrrolidine-2-carboxamide] | 69 | 0
